Source: patent publication US20140005163A1 (NOVARTIS AG, priority 2010, published 2014)
pIC50: −log10 of the molar value.

Columns and labels:
PI3K delta = target: T1, PI3K delta (Homo sapiens, UniProt O00329); experiment: PI3K delta kinase assay (Kinase-Glo luminescence); type: biochemical
T1 construct: for the full-length p110-d subunit are generated and fused by overlapping PCR; p85(iSH2) fusion partner (see partner chain) (N); His tag (C); made in house; host or cells: baculovirus; Tn5 (Trichoplusia ni) or TiniPro insect cells
Summary of the method: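 Kinase-Glo luminescence read-out of ATP remaining after 60 min at RT. Enzyme: 10 nM BV1060 (p85 iSH2–p110δ fusion, His-tagged); substrate 10 μg/mL PI, ATP 1 μM final; Tris pH 7.5 buffer with MgCl2, NaCl, CHAPS, DTT. IC50 from 4-parameter logistic fit over 8 concentrations.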

mTOR = target: T2, mTOR (Homo sapiens, UniProt P42345); experiment: Biochemical assay for m-TOR by TR-FRET; conditions: 8 μM ATP, 400 nM GFP-4EBP1, 0.5 nM mTOR
T2 construct: purchased Invitrogen Corporation (Carlsbad/CA, USA) PV4753
Summary of the method: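 Enzyme 0.5 nM, GFP-4EBP1 400 nM, ATP 8 μM (all final); 50 mM HEPES pH 7.5, 10 mM MnCl2, 1 mM DTT; rt. Detection: Tb-α-p4EBP1 [pT46] 0.5 nM in EDTA, TR-FRET, 15 min. Reference compound on every plate, 16-point duplicate dilutions.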

PI3K alpha = target: T3, PI3K alpha (Homo sapiens, UniProt P42336); experiment: PI3K alpha kinase assay (Kinase-Glo luminescence); type: biochemical
T3 construct: p85(iSH2) fusion partner (see partner chain) (N); His tag (C); made in house; host or cells: baculovirus; Tn5 (Trichoplusia ni) or TiniPro insect cells
Summary of the method: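 Read-out: Kinase-Glo luminescence of ATP left after 60 min at room temperature. Conditions: 10 nM PI3Kα (EMV B1075), 1 μM ATP, 10 μg/mL PI substrate, Tris pH 7.5 buffer with MgCl2, NaCl, CHAPS and DTT. IC50s fitted with a four-parameter logistic model.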

T3 sequence (P42336 with tags, fused parts or gaps limits assumed): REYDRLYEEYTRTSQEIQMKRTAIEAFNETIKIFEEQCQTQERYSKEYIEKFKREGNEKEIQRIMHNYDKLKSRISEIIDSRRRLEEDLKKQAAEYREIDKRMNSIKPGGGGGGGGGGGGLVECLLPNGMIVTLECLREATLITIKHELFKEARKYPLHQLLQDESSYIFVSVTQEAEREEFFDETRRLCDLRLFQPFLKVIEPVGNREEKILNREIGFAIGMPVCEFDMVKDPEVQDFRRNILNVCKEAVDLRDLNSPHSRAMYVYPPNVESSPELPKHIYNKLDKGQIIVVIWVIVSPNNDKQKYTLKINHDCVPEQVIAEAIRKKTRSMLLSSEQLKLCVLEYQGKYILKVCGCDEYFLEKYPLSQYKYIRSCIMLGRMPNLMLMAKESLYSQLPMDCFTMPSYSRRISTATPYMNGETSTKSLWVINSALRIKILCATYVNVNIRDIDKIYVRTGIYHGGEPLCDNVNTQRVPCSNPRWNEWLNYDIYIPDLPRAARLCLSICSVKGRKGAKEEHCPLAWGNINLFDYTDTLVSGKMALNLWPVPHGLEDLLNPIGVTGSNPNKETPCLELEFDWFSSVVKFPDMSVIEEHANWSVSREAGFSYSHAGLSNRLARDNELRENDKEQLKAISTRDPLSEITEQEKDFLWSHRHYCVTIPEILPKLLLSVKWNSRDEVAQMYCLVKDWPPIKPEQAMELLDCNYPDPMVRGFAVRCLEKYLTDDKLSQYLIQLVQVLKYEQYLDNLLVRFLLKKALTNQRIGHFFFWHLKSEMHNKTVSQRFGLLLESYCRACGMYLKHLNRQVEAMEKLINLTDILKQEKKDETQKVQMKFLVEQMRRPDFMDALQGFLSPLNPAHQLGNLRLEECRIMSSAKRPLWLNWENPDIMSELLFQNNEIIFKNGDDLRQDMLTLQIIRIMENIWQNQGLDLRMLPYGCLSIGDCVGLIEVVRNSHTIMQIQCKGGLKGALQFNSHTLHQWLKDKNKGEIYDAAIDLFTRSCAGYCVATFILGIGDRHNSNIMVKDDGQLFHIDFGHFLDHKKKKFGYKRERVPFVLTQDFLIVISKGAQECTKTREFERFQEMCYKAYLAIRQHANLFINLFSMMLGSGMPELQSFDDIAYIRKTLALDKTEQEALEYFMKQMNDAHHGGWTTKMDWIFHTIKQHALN
T1 sequence (O00329 with tags, fused parts or gaps limits assumed): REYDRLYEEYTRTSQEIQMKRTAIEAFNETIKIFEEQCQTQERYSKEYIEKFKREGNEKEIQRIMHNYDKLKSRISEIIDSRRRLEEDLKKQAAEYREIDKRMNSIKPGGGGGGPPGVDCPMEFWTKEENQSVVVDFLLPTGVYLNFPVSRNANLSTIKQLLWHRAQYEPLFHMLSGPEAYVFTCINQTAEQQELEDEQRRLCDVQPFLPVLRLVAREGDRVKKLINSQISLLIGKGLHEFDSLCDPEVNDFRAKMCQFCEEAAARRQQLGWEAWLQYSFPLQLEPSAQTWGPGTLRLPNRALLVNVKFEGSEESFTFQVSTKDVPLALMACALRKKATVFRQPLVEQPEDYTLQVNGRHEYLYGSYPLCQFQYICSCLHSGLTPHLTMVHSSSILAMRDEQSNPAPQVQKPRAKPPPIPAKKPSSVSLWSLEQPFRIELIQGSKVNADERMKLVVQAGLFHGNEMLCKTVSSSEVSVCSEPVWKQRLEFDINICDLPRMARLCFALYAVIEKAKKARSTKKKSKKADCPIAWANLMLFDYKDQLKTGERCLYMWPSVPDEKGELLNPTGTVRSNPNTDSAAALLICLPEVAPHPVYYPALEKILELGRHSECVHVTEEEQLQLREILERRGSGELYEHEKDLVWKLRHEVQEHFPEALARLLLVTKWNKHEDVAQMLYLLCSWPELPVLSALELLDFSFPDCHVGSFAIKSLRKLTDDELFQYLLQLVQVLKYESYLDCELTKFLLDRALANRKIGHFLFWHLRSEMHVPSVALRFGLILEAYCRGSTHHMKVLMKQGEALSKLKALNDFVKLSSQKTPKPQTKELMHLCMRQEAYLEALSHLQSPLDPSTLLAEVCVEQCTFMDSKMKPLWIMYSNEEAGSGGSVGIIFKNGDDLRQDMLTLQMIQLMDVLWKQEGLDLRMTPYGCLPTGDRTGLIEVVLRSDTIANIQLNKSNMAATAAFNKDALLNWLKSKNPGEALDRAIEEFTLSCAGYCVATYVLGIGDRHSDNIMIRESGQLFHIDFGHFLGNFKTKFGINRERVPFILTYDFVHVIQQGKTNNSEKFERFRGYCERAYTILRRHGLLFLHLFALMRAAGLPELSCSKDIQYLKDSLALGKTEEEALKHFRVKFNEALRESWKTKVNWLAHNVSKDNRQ
T2 sequence (P42345 1360-2549 limits assumed): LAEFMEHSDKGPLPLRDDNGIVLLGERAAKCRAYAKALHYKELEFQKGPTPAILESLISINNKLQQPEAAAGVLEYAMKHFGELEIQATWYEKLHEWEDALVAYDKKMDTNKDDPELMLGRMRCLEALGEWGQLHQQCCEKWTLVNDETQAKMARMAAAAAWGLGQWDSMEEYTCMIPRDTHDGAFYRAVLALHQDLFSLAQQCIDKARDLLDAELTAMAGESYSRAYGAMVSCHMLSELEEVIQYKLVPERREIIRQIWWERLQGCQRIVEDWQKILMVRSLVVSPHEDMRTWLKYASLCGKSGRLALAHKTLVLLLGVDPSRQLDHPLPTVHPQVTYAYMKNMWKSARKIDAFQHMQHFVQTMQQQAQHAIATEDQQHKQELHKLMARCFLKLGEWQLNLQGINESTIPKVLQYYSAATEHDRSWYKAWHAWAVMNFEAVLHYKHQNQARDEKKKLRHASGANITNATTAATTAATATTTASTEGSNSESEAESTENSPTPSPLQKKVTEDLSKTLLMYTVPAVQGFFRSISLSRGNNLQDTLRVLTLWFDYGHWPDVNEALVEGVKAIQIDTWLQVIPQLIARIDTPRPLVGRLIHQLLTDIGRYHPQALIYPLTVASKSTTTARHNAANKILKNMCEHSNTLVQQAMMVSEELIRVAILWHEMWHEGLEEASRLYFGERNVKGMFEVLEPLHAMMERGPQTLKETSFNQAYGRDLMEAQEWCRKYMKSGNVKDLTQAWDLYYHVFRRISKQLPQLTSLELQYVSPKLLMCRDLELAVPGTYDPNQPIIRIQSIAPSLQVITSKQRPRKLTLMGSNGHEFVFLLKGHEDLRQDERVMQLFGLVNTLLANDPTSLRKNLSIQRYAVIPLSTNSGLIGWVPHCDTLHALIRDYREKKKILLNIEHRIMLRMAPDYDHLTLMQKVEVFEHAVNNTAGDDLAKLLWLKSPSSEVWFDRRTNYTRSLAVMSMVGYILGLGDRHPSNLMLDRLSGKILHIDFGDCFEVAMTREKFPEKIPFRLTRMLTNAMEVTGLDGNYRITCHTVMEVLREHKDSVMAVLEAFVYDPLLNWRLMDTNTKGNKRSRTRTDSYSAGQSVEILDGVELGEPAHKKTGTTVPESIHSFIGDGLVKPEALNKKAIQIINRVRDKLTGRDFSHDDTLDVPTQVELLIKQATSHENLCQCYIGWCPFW

| SMILES | pIC50 (PI3K delta) | pIC50 (mTOR) | pIC50 (PI3K alpha) |
| --- | --- | --- | --- |
| CCOc1ncc(-c2ccc3ncc4c(c3c2)n(-c2cn(C)nc2C)c(=O)n4C)cc1NC(C)=O [Example 65, N-{5-[1-(1,3-Dimethyl-1H-pyrazol-4-yl)-3-methyl-2-oxo-2,3-dihydro-1H-imidazo[4,5-c]quinolin-8-yl]-2-ethoxy-pyridin-3-yl}-acetamide] | 6.76 | 7.24 | 6.34 |
| CCn1cc(-n2c(=O)n(C)c3cnc4ccc(-c5ccc(OC)nc5)cc4c32)c(C)n1 [Example 2.7, 1-(1-Ethyl-3-methyl-1H-pyrazol-4-yl)-8-(6-methoxy-pyridin-3-yl)-3-methyl-1,3-dihydro-imidazo[4,5-c]quinolin-2-one] | 7.72 | 7.89 | 7.62 |
| CCOc1cc(-c2ccc3ncc4c(c3c2)n(-c2c(C)nn(CC(=O)N(C)C)c2C)c(=O)n4C)cnc1C [Example 85.3, 2-{4-[8-(5-Ethoxy-6-methyl-pyridin-3-yl)-3-methyl-2-oxo-2,3-dihydro-imidazo[4,5-c]quinolin-1-yl]-3,5-dimethyl-pyrazol-1-yl}-N,N-dimethyl-acetamide] | 7.34 | 6.48 | 7.47 |
| Cc1nn(C)cc1-n1c(=O)n(C)c2cnc3ccc(-c4ccc(N5CCC5)nc4)cc3c21 [Example 5.1, 8-(6-Azetidin-1-yl-pyridin-3-yl)-1-(1,3-dimethyl-1H-pyrazol-4-yl)-3-methyl-1,3-dihydro-imidazo[4,5-c]quinolin-2-one] | 6.84 | 7.74 | 7.52 |
| Cn1nccc1-n1c(=O)n(C)c2cnc3ccc(-c4ccc(NCCO)nc4)cc3c21 [Example 21.1, 8-[6-(2-Hydroxy-ethylamino)-pyridin-3-yl]-3-methyl-1-(2-methyl-2H-pyrazol-3-yl)-1,3-dihydro-imidazo[4,5-c]quinolin-2-one] | 6.94 | 6.70 | 6.57 |
| COc1ccc(-c2ccc3ncc4c(c3c2)n(-c2cn(C(C)C)nc2C)c(=O)n4C)cc1OC [Example 1.5, 8-(3,4-Dimethoxy-phenyl)-1-(1-isopropyl-3-methyl-1H-pyrazol-4-yl)-3-methyl-1,3-dihydro-imidazo[4,5-c]quinolin-2-one] | 8.15 | 7.21 | 8.00 |
| Cc1nn(C)cc1-n1c(=O)n(C)c2cnc3ccc(-c4ccc(-n5cccn5)cc4)cc3c21 [Example 51.1, 1-(1,3-Dimethyl-1H-pyrazol-4-yl)-3-methyl-8-(4-pyrazol-1-yl-phenyl)-1,3-dihydro-imidazo[4,5-c]quinolin-2-one] | 6.93 | 7.96 | 7.64 |
| Cc1nn(C)cc1-n1c(=O)n(C)c2cnc3ccc(-c4ccc(N(C)C)nc4)cc3c21 [Example 4.5, 8-(6-Dimethylamino-pyridin-3-yl)-1-(1,3-dimethyl-1H-pyrazol-4-yl)-3-methyl-1,3-dihydro-imidazo[4,5-c]quinolin-2-one] | 7.77 | 7.66 | 7.64 |
| Cc1nn(C)cc1-n1c(=O)n(C)c2cnc3ccc(-c4ccc(C(N)=O)nc4)cc3c21 [Example 14, 5-[1-(1,3-Dimethyl-1H-pyrazol-4-yl)-3-methyl-2-oxo-2,3-dihydro-1H-imidazo[4,5-c]quinolin-8-yl]-pyridine-2-carboxylic acid amide] | 7.47 | 8.22 | 7.74 |
| COc1ccc(-c2ccc3ncc4c(c3c2)n(-c2cc(C)nn2C)c(=O)n4C)cc1OC [Example 1.4, 8-(3,4-Dimethoxy-phenyl)-1-(2,5-dimethyl-2H-pyrazol-3-yl)-3-methyl-1,3-dihydro-imidazo[4,5-c]quinolin-2-one] | 7.08 | 7.06 | 7.41 |
| Cc1nn(C)cc1-n1c(=O)n(C)c2cnc3ccc(-c4cccc(S(=O)(=O)N5CCCC5)c4)cc3c21 [Example 44, 1-(1,3-Dimethyl-1H-pyrazol-4-yl)-3-methyl-8-[3-(pyrrolidine-1-sulfonyl)-phenyl]-1,3-dihydro-imidazo[4,5-c]quinolin-2-one] | 7.55 | 6.25 | 7.15 |

Further lines, results first:

| pIC50 (PI3K delta) | pIC50 (mTOR) | pIC50 (PI3K alpha) | SMILES |
| --- | --- | --- | --- |
| 7.03 | 8.22 | 7.74 | COC(=O)c1ccc(-c2ccc3ncc4c(c3c2)n(-c2cn(C)nc2C)c(=O)n4C)cn1 [Example 100, 5-[1-(1,3-Dimethyl-1H-pyrazol-4-yl)-3-methyl-2-oxo-2,3-dihydro-1H-imidazo[4,5-c]quinolin-8-yl]-pyridine-2-carboxylic acid methyl ester] |
| 7.52 | 7.12 | 7.66 | CCn1c(=O)n(-c2cn(C)nc2C)c2c3cc(-c4cncc(N)c4)ccc3ncc21 [Example 245, 8-(5-Amino-pyridin-3-yl)-1-(1,3-dimethyl-1H-pyrazol-4-yl)-3-ethyl-1,3-dihydro-imidazo[4,5-c]quinolin-2-one] |
| 6.80 | 6.71 | 6.76 | CCOCc1ncc(-c2ccc3ncc4c(c3c2)n(-c2cn(C)nc2C)c(=O)n4C)cc1OC [Example 196.2, 1-(1,3-Dimethyl-1H-pyrazol-4-yl)-8-(6-ethoxymethyl-5-methoxy-pyridin-3-yl)-3-methyl-1,3-dihydro-imidazo[4,5-c]quinolin-2-one] |
| 6.10 | 7.92 | 7.42 | Cc1nn(CC(=O)N2CCC2)cc1-n1c(=O)n(C)c2cnc3ccc(-c4cnc(N5CCCC5)nc4)cc3c21 [Example 247.2, 1-[1-(2-Azetidin-1-yl-2-oxo-ethyl)-3-methyl-1H-pyrazol-4-yl]-3-methyl-8-(2-pyrrolidin-1-yl-pyrimidin-5-yl)-1,3-dihydro-imidazo[4,5-c]quinolin-2-one] |
| 7.07 | 7.82 | 7.09 | Cc1nn(C)cc1-n1c(=O)n(C)c2cnc3ccc(-c4cncc(N(C)C)c4)cc3c21 [Example 178, 8-(5-Dimethylamino-pyridin-3-yl)-1-(1,3-dimethyl-1H-pyrazol-4-yl)-3-methyl-1,3-dihydro-imidazo[4,5-c]quinolin-2-one] |
| 7.74 | 7.77 | 7.60 | Cc1nn(C(C)C)cc1-n1c(=O)n(C)c2cnc3ccc(-c4cnc(N)c(F)c4)cc3c21 [Example 142.3, 8-(6-Amino-5-fluoro-pyridin-3-yl)-1-(1-isopropyl-3-methyl-1H-pyrazol-4-yl)-3-methyl-1,3-dihydro-imidazo[4,5-c]quinolin-2-one] |
| 6.99 | 7.01 | 7.29 | Cc1nn(C)cc1-n1c(=O)n(C)c2cnc3ccc(-c4ccc(N5CCNCC5)nc4)cc3c21 [Example 126, 1-(1,3-Dimethyl-1H-pyrazol-4-yl)-3-methyl-8-(6-piperazin-1-yl-pyridin-3-yl)-1,3-dihydro-imidazo[4,5-c]quinolin-2-one] |
| 8.05 | 7.15 | 8.10 | CCN1C(=O)OCc2ncc(-c3ccc4ncc5c(c4c3)n(-c3cn(C)nc3C)c(=O)n5C)cc21 [Example 237, 1-(1,3-Dimethyl-1H-pyrazol-4-yl)-8-(1-ethyl-2-oxo-1,4-dihydro-2H-pyrido[3,2-d][1,3]oxazin-7-yl)-3-methyl-1,3-dihydro-imidazo[4,5-c]quinolin-2-one] |
| 8.05 | 8.30 | 7.70 | COc1ncc(-c2ccc3ncc4c(c3c2)n(-c2cn(C)nc2C)c(=O)n4C)cc1N [Example 127, 8-(5-Amino-6-methoxy-pyridin-3-yl)-1-(1,3-dimethyl-1H-pyrazol-4-yl)-3-methyl-1,3-dihydro-imidazo[4,5-c]quinolin-2-one] |
| 7.89 | 6.56 | 7.44 | CNc1ncc(-c2ccc3ncc4c(c3c2)n(-c2c(C)nn(C)c2C)c(=O)n4C)cc1C(F)(F)F [Example 144.1, 3-Methyl-8-(6-methylamino-5-trifluoromethyl-pyridin-3-yl)-1-(1,3,5-trimethyl-1H-pyrazol-4-yl)-1,3-dihydro-imidazo[4,5-c]quinolin-2-one] |
| 8.05 | 8.52 | 7.74 | COc1ncc(-c2ccc3ncc4c(c3c2)n(-c2cn(C)nc2Cl)c(=O)n4C)cc1N [Example 89, 8-(5-Amino-6-methoxy-pyridin-3-yl)-1-(3-chloro-1-methyl-1H-pyrazol-4-yl)-3-methyl-1,3-dihydro-imidazo[4,5-c]quinolin-2-one] |
| 7.66 | > 8.52 | 7.62 | Cc1nn(C(C)C)cc1-n1c(=O)n(C)c2cnc3ccc(-c4cnc(N)c(CO)c4)cc3c21 [Example 169.1, 8-(6-Amino-5-hydroxymethyl-pyridin-3-yl)-1-(1-isopropyl-3-methyl-1H-pyrazol-4-yl)-3-methyl-1,3-dihydro-imidazo[4,5-c]quinolin-2-one] |
| 7.41 | 8.05 | 7.74 | Cc1nn(C)cc1-n1c(=O)n(C)c2cnc3ccc(-c4cnc(N)c(Cl)c4)cc3c21 [Example 148.2, 8-(6-Amino-5-chloro-pyridin-3-yl)-1-(1,3-dimethyl-1H-pyrazol-4-yl)-3-methyl-1,3-dihydro-imidazo[4,5-c]quinolin-2-one] |
